The results in this text go back to ChEMBL document CHEMBL3430912, “GSK Tres Cantos Anti-Kinetoplastid Screening (TCAKS) Data”.

In data set [1] the test system is Leishmania donovani. Nature of the data set: GSK_TCAKS: pIC50 Leishmania donovani viability assay using fluorescence intensity. Assay plates (1536-well) were prepared by adding 30nL per well of compound. For single shot assay, the final compound concentration was 5uM. […] Briefly, eGFP LdBOB axenic amastigotes were harvested, fixed and counted in a CASY cell counter (Roche-Applied Science). A final concentration of 1.5 * 10^5 cells per well were prepared in amastigote media containing 500 U/mL penicillin/streptomycin (Invitrogen) and 6uL was dispensed to each experimental well using a Multidrop Combi dispenser (Thermo Scientific). 6uL of assay media was dispensed to control columns used as reference for 100% compound response. Following incubation for 72 h at 37C, 5% CO2, 2 uL of resazurin was added to each well at a final concentration of 0.5 mM in phosphate buffered saline (PBS) with IGEPAL (Sigma-Aldrich), 0.05% (v/v). It is filed as functional, organism-based. On the technique in general: The colour change of resazurin is a common sign of viable cells or microbes.

Data set [2] deals with Trypanosoma brucei brucei. The data set is described as follows: GSK_TCAKS: pIC50 Trypanosoma brucei viability assay using fluorescence intensity. Assay plates (1536-well) were prepared by dispensing 25nL of compound solution per well using an Echo acoustic dispenser (Labcyte). The class given is functional, organism-based. The following applies: Lister 427, 2 h.
The subject of data set [3] is Leishmania donovani. The data set is described as follows: GSK_TCAKS: pIC50 Leishmania donovani Imaging: Infected Macrophages. Assay plates (384-well) were prepared by adding 250nL of compound to each well. For single shot assay, the final compound concentration was 5 uM. […] Automated image analysis was performed with a script developed on Acapella High Content Imaging and Analysis Software (PerkinElmer). Output: Percent of infected macrophage cells were reported for each well. The class given is functional, organism-based, Homo sapiens. The following applies: THP-1.

The subject of data set [4] is Trypanosoma cruzi. The data set is described as follows: GSK_TCAKS: pIC50 Trypanosoma cruzi viability assay using beta-GAL activity. This assay was run at single shot at 5uM compound concentration per well. The biological reagents consisted of NIH-3T3 host cells and trypomastigotes parasitic cells; both cell types were set to a 3.3 * 10^5 cells/mL dilution in assay DMEM by means of a CASY cell counter device using a 60um capillary. 6 uL of the mixture were dispensed per well (about 1 * 10^3 host-cells and 1 * 10^3 parasites) with a Multidrop Combi dispenser. […] In all wells, the percentage of DMSO never exceeded 0.5%. Plates incubated for four days at 37C, 5% CO2. The substrate used for the assay fluorescence intensity (FLINT) readout was resorufin-beta-D-galactopiranoside (Sigma-Aldrich) at 5uM per well. It was diluted in PBS supplemented with the soft detergent Igepal (Fluka). It is filed as functional, organism-based, Mus musculus. The following applies: Tulahuen, NIH3T3.

In data set [5] the test system is Leishmania donovani. Nature of the data set: GSK_TCAKS: pIC50 Leishmania donovani Imaging: THP-1 Host Macrophages. Assay plates (384-well) were prepared by adding 250nL of compound to each well. For single shot assay, the final compound concentration was 5 uM. […] Automated image analysis was performed with a script developed on Acapella High Content Imaging and Analysis Software (PerkinElmer). Output: THP-1 cell count were reported for each well. The class given is functional, organism-based, Homo sapiens.

The subject of data set [6] is Leishmania donovani. Nature of the data set: GSK_TCAKS: pIC50 Leishmania donovani Imaging: Amastigotes/Macrophages. Assay plates (384-well) were prepared by adding 250nL of compound to each well. For single shot assay, the final compound concentration was 5 uM. […] Automated image analysis was performed with a script developed on Acapella High Content Imaging and Analysis Software (PerkinElmer). Output: Average number of amastigotes per macrophage cell were reported for each well. It is filed as functional, organism-based, Homo sapiens. The following applies: THP-1.

Data set [7] is described as follows: GSK_TCAKS: pIC50 HepG2 human cell line viability assay using luminiscence. […] Seeding density was checked to ensure that new mono-layers were not more than 50% confluent at the time of harvesting. Cell suspension was added to 500 mL of the same medium at a final density of 1.2 * 10^5 cells/mL. This cell suspension was dispensed (25 uL, 3000 cells per well) into 384-well clear-bottom plates using a Multidrop Combi dispenser. Prior to addition of the cell suspension, the screening compounds (250 nL) were pre-dispensed into the plates with an Echo liquid handler. Plates were incubated for 48 h at 37C, 5% CO2. After incubation, plates equilibrated at room temperature for 30 min before proceeding to develop the luminescent signal. The signal developer, CellTiter-Glo Reagent, was allowed to equilibrate at room temperature for 30 min and added to the plates (25uL per well) using a Multidrop Combi dispenser. Plates were left for 10 min at room temperature for stabilization and then read using a ViewLux. The class given is toxicity, cell-based.

For data set [8], the system named is Trypanosoma cruzi. Nature of the data set: (§1) GSK_TCAKS: pIC50 Trypanosoma cruzi Imaging: Amastigotes/Cell. […] Cells were then washed once with PBS before infection. T. cruzi trypomastigotes, collected at days 5 to 8 after infection from LLC-MK2 parasite infected cultures, were allowed to swim out for 4h at 37C from a centrifuged pellet (2,500 rpm/10 min/room temperature). Trypomastigotes were then collected and counted in a CASY Cell Counter. Trypomastigotes, in supplemented DMEM, were added to H9c2 cultures in a multiplicity of infection of 1 and incubated for 18 h. Cells were washed once with PBS before incubation of the infected H9c2 monolayer with trypsin (Life-Technologies) to detach cells from the flask. Cells were counted in a CASY Cell Counter using a 150 um capillary and their density set at 5 * 10^4 cells per mL in supplemented assay DMEM. Infected H9c2 were dispensed into 384-well poly-lysine coated assay plates at 50uL per well using a Multidrop Combi dispenser. After seeding them, the plates were incubated at 37C, 5% CO2 for 72h. Cultures were then fixed and stained by addition of 50 uL of a solution containing 8% formaldehyde and 4 uM DRAQ5 DNA dye (BioStatus, UK) per well. […] Five images were collected per well for reliable statistical analysis. Automated image analysis was performed with a script developed on Acapella High Content Imaging and Analysis Software (PerkinElmer). Output: number of amastigotes per cell as infection level measurement. The class given is functional, organism-based, Rattus norvegicus. The following applies: H9c2, 4 h.

Data set [9] relates to Trypanosoma cruzi. The description is as §1, with “H2C9” for “Trypanosoma cruzi”, “H9c2 Host Cardiomyocytes.” for “Amastigotes/Cell.”, “Number” for “number”, “H9c2 Host Cardiomyocytes nuclei to determine drug-related cytotoxicity.” for “amastigotes per cell as infection level measurement.”. The class given is functional, organism-based, Rattus norvegicus. The following applies: H9c2, 4 h.

For data set [10], the system named is Trypanosoma cruzi. The data set is described as follows: GSK_TCAKS: pIC50 Trypanosoma cruzi Imaging: Infected Cells. […] Cells were then washed once with PBS before infection. T. cruzi trypomastigotes, collected at days 5 to 8 after infection from LLC-MK2 parasite infected cultures, were allowed to swim out for 4h at 37C from a centrifuged pellet (2,500 rpm/10 min/room temperature). Trypomastigotes were then collected and counted in a CASY Cell Counter. Trypomastigotes, in supplemented DMEM, were added to H9c2 cultures in a multiplicity of infection of 1 and incubated for 18 h. Cells were washed once with PBS before incubation of the infected H9c2 monolayer with trypsin (Life-Technologies) to detach cells from the flask. Cells were counted in a CASY Cell Counter using a 150 um capillary and their density set at 5 * 10^4 cells per mL in supplemented assay DMEM. Infected H9c2 were dispensed into 384-well poly-lysine coated assay plates at 50uL per well using a Multidrop Combi dispenser. After seeding them, the plates were incubated at 37C, 5% CO2 for 72h. Cultures were then fixed and stained by addition of 50 uL of a solution containing 8% formaldehyde and 4 uM DRAQ5 DNA dye (BioStatus, UK) per well. […] Five images were collected per well for reliable statistical analysis. Automated image analysis was performed with a script developed on Acapella High Content Imaging and Analysis Software (PerkinElmer). Output: percentage of infected cells per well as a second infection marker. The class given is functional, organism-based, Rattus norvegicus. The following applies: H9c2, 4 h.

The target of data set [11] is Sterol 14-alpha demethylase (Trypanosoma cruzi (strain CL Brener), UniProt Q7Z1V1). Nature of the data set: GSK_TCAKS: pIC50 CYP51 from Trypanosoma cruzi. The class given is functional.
Chain of Sterol 14-alpha demethylase (Q7Z1V1 whole entry): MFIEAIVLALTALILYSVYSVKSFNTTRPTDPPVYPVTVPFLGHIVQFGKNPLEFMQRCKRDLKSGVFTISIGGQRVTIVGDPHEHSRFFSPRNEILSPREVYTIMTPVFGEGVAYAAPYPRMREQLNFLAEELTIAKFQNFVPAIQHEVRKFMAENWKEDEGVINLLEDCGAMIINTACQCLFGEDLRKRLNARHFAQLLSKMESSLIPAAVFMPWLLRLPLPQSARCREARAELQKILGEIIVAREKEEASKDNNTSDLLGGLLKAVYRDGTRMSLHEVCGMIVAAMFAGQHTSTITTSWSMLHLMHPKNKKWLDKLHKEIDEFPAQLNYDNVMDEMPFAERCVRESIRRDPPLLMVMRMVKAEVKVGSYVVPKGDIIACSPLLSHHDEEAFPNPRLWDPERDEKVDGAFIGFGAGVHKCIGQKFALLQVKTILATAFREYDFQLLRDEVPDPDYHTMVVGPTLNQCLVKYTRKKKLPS
The test system of data set [12] is Trypanosoma brucei brucei. The data set is described as follows: GSK_TCAKS: pIC50 Trypanosoma brucei viability assay using luminiscence. Assay plates (1536-well) were prepared. T. brucei cultures were harvested and counted in a CASY cell counter. A parasite suspension was prepared at a final concentration of 5 * 10^4 cells/mL in complete HMI9 medium and 6uL was dispensed to all wells containing compounds using a Multidrop Combi dispenser. 6uL of HMI9 media with 0.4% DMSO were dispensed to control columns. Plates were incubated for 24 h at 37C, 5% CO2 then tempered for 10 min at room temperature. ATP content was quantified by adding 4 uL of CellTiter-Glo Reagent (Promega) according to the manufacturer's instructions. Luminescence was measured using a ViewLux. The class given is functional, organism-based. As to conditions: Lister 427, CASY. On the technique in general: ATP-based viability assays read luminescence as a measure of living cells.

`CCN(CC)S(=O)(=O)c1ccc(OC)c(NC(=O)c2ccc([N+](=O)[O-])s2)c1`: the IC50 is over 50.1 µM in data set [1]; 0.398 µM in [2]; over 50.1 µM in data set [3]; 0.251 µM in data set [4]; over 50.1 µM in data set [5]; over 50.1 µM in data set [6]. Further, the half-inhibitory concentration (IC50) in data set [8] is 0.126 µM; in data set [9], over 50.1 µM; in data set [10], 0.158 µM; in data set [11] it was 31.6 µM; in data set [12], 0.631 µM. For the same compound, the IC50 at 48 h in data set [7] is over 100 µM.

On to `Cc1cc(NC(=O)c2ccc([N+](=O)[O-])s2)ccc1Br`, for which the IC50 is 3.16 µM in [1]; 0.316 µM in data set [2]; 2.51 µM in [3]; 0.251 µM in [4]; 15.8 µM in data set [5]; 1.58 µM in data set [6]. In addition, the IC50 in [8] was 0.251 µM; in data set [9] it was 2.51 µM; in [10] it was 0.398 µM; in data set [11], 10 µM; in data set [12], 5.01 µM. The compound further gave a half-maximal inhibitory concentration (IC50) at 48 h in data set [7] of 39.8 µM.

For the compound `CCN(CC)c1ccc(S(=O)(=O)N(CC)CC)c2nonc12`, the IC50 was 6.31 µM in [1]; 25.1 µM in data set [2]; 0.398 µM in [3]; 25.1 µM in [4]; 15.8 µM in data set [5]; 0.126 µM in data set [6]. Moreover, the half-inhibitory concentration (IC50) in data set [8] was 20 µM; in data set [9], over 50.1 µM; in data set [10] it was 50.1 µM; in [11] it was 25.1 µM; in [12], 25.1 µM. The same compound had an IC50 at 48 h in data set [7] of over 100 µM.

Turning to `Cc1ccc(C)c(CN2C(=O)NC3(CCc4ccccc43)C2=O)c1` (configuration not stated), the IC50 is over 50.1 µM in data set [1]; 0.501 µM in data set [2]; over 50.1 µM in data set [3]; 25.1 µM in data set [4]; over 50.1 µM in [5]; 15.8 µM in data set [6]. Further, the IC50 in data set [8] is 7.94 µM; in data set [9], over 50.1 µM; in data set [10], 20 µM; in [11], 39.8 µM; in [12] it was 1 µM. In data set [7], this compound gave an IC50 at 48 h of over 100 µM.

For the compound `CC(C)(C)Nc1nc(Nc2ccc3c(c2)CS(=O)(=O)C3)nc2[nH]ccc12`, the IC50 in data set [1] was 7.94 µM; in data set [2], 0.794 µM; in data set [3] it was 6.31 µM; in data set [4] it was 1 µM; in data set [5], 20 µM; in [6], 5.01 µM. Also, the IC50 in data set [8] is 20 µM; in data set [9], 1 µM; in data set [10], 31.6 µM; in data set [11], 25.1 µM; in data set [12], 5.01 µM. This compound had an IC50 at 48 h in [7] of 31.6 µM.

As to `Cc1nc(C(=O)Nc2ccc3c(c2)OCO3)nn1-c1ccc(Cl)cc1`, the IC50 is 2.51 µM in data set [1]; over 39.8 µM in data set [2]; 2 µM in data set [3]; 6.31 µM in data set [4]; 12.6 µM in data set [5]; 1.58 µM in [6]. Also, the IC50 is 1 µM in data set [8]; over 50.1 µM in [9]; 1.58 µM in data set [10]; 31.6 µM in [11]; over 39.8 µM in [12]. In addition, the IC50 at 48 h in data set [7] is over 100 µM.

One may read the IC50 as the point on the concentration scale where inhibition reaches its midpoint.
